Entries after “also recorded” stand apart in the source; their conditions may differ.
Columns and labels:
[1] = system: susceptible strain of E. coli; test: Response of pre-rRNA to cefazolin in log phase culture; type: cell-based; conditions: log phase of growth, within 30 min after addition
[2] = system: E. coli clinical urine isolate EC103; test: Electrochemical sensor assay of pre-rRNA and mature rRNA in E. coli EC103 cultures spiked with antibiotics; type: cell-based; conditions: EC103 culture in MH broth, antibiotic added at 150 or 210 min; 25 μg/ml Rifampicin, 25 μg/ml Chloramphenicol, 4 μg/ml Ciprofloxacin, 16 μg/ml Gentamicin; vs culture without antibiotic
Procedure: Bacterial Strains and Media. E. coli clinical urine isolate EC103 (Amp^R) was obtained from the University of California-Los Angeles (UCLA) Clinical Microbiology Laboratory with approval from the UCLA and Veterans' Affair Institutional Review Boards and appropriate Health Insurance Portability and Accountability Act exemptions. EC103 was inoculated into Mueller Hinton (MH) broth with 12% glycerol (Becton Dickinson, Sparks, Md.) and stored at -80° C. EC103 was cultured overnight in MH broth with 64 μ[…] (Sigma, St. Louis, Mo.). EC103 was plated on Luria Broth (LB) agar (MOBIO Laboratories Inc., Carlsbad, Calif.) for counting colony-forming units (CFUs). EC103 Growth and Target Copy Number Experiments. Overnight cultures of EC103 were prepared by adding 5 μl of EC103 glycerol stock to 5 ml of MH broth with ampicillin and incubated at 37° C. overnight with shaking. The following day, the EC103 culture was diluted by adding 10 μl of the overnight culture to 100 ml of prewarmed and […] MH broth in a 500 ml flask, followed by incubation at 37° C. with shaking at 250 rpm. Every 30 min, including at 0 min and the overnight culture itself, a 1 ml sample was taken for OD600 measurement and 10-fold serial dilutions (100 μl into 900 μl) were performed in room temperature MH broth. Cell density was determined by plating serial dilutions in triplicate. At each time point, culture samples were transferred to an ice water bath or centrifuged immediately at 4° C. for 3 min at 14,000 rpm. The supernatants were then removed by aspiration, flash frozen in a dry ice-ethanol bath and stored at -80° C. […] Electrochemical detection. […] For thiolated capture probes, disposable 16-sensor bare Au electrode arrays were obtained from GeneFluidics ([…], Calif.). Each sensor of the array consisted of a 2.5 mm diameter central working electrode, surrounded by an Au counter electrode and an Au pseudo-reference electrode. The sensor chip was driven by a computer-controlled Helios multichannel electrochemical workstation (GeneFluidics, […], Calif.). Washing steps were carried out after each application of reagents by applying a stream of deionized H2O to the sensor surface for approximately 2-3 sec followed by 5 sec of drying under a stream of nitrogen. Prior to addition of the first reagent, the bare gold chips were dried as described above. To functionalize the working sensor surface, a fresh mixture of 0.05 μM thiolated capture probe and 300 μM 1,6-hexanedithiol (96%, Sigma, St. Louis, Mo.) was prepared in 10 mM Tris-HCl, 1 mM EDTA and 0.3 M NaCl (pH 8.0) and allowed to stand at room temperature for 10 min. […] This was then combined with the CFU/ml values determined by plating for each time point to generate target molecule number per CFU measurements.

Compound | drop in the amount of pre-rRNA compared to a culture without the antibiotic [1] | effect on mature rRNA level [2] | effect on pre-rRNA level [2]
Cc1nnc(SCC2=C(C(=O)O)N3C(=O)[C@@H](NC(=O)Cn4cnnn4)[C@H]3SC2)s1 [cefazolin] | one-log drop |  | 
Gentamicin |  | decrease in the pool of mature rRNA; also recorded: selective decrease in mature rRNA | without affecting the level of pre-rRNA
O=C(N[C@H](CO)[C@H](O)c1ccc([N+](=O)[O-])cc1)C(Cl)Cl [chloramphenicol, Chloramphenicol] |  | decrease of mature rRNA; also recorded: selective decrease in mature rRNA | selective increase in pre-rRNA

Reference: patent publication US10370728B2, “Antibiotic susceptibility testing using probes for preribosomal RNA” (THE REGENTS OF THE UNIVERSITY OF CALIFORNIA, priority 2012, dated 2019)
